Where two headings read alike, the source gives them in different places.
Experiments:
[1] = test system: primary postnatal (P0) cortical cells; assay: Neurite outgrowth assay (Aβ1-42-induced reduction of neurite outgrowth, high content microscopy); format: cell-based, rat; settings: Rattus norvegicus; maximum response relative to 300 nM dimebolin, at the concentration given; read-out: Maximum Effect (of % 300 nM Dimebolin)
Description: In addition to PC12 cells, other cellular model systems may also be used. Rat cortical cells were cultured and prepared for high content microscopy analysis as previously described (Hu, M.; Schurdak, M. E.; et al. High content screen microscopy analysis of Aβ1-42-induced neurite outgrowth reduction in rat primary cortical neurons: Neuroprotective effects of α7 neuronal nicotinic acetylcholine receptor ligands. Brain Res. 2007, 1151, 227-235.). Briefly, cortical cell cultures were plated at density of 5×10^5 cells/mL onto poly-D-lysine coated 96-well plates and maintained in a cell incubator at 37° C. with 5% CO2. Experiments were performed using 6-7 day-old cortical cell cultures by treating with test compounds. In some experiments, the effect of test compounds on reversing Aβ toxicity were also measured (Hu, M.; Schurdak, M. E.; et al. High content screen microscopy analysis of Aβ1-42-induced neurite outgrowth reduction in rat primary cortical neurons: Neuroprotective effects of α7 neuronal nicotinic acetylcholine receptor ligands. Brain Res. 2007, 1151, 227-235.). For assessment of neuroprotective effects, cells were first pretreated with test compounds for about 5 hours. Medium was then replaced with the medium containing freshly prepared about 5 μM Aβ1-42 peptide in the absence or presence of the test compounds for 3 days. The untreated group contained the same percentage of vehicle (DMSO) as in the treatment groups. Cells were fixed with approximately 4% paraformaldehyde containing 0.5% Hoechst 33342 for about 15 minutes, followed by three washes using PBS (pH 7.4) and blocked with 10% donkey serum in PBS for 1 hour at room temperature. The cells were then incubated overnight at about 4° C. with mouse anti-tubulin monoclonal antibody (1:100) for staining neurons and rabbit anti-GFAP (1:1000) for staining glia. In the next day, cells were incubated with FITC-labeled anti-mouse and TRITC-labeled anti-rabbit antibodies (1:1000) for about 1 hour at room temperature. After fixing and staining the cells, nuclei (360/400 nm excitation and 465/300 nm emission filters), neuron (475/350 nm excitation and 535/400 nm emission filters) and glial cell (535 nm excitation and 610 nm emission filters) images were collected using the ImageExpress Micro automatic fluorescent microscopy system (Molecular Devices, Sunnyvale, Calif.) employing a Nikon 10× Plan Fluor objective and Cool Snap HQ CCD camera. The Neurite Outgrowth module in the MetaMorph Imaging software was used to automatically count total cell number, number of neuron cells, and the extent of neurite outgrowth.
In the graph of FIG. 2, 100% response was the response observed for untreated cells. Exposure to Aβ1-42 produced a decrease in neurite outgrowth. Treatment of cells with compounds prior to and concomitantly with Aβ1-42 gave a neuroprotective effect with neurite outgrowth maintained or enhanced relative to untreated cells.

[2] = test system: SK-N-SH human neuroblastoma cells; assay: Serum deprivation/JC-1 mitochondrial membrane potential (MMP) assay; format: cell-based; settings: for Emax: SK-N-SH, read-out: JC-1 max %; for EC50: SK-N-SH cells, serum deprivation ~18 hours, JC-1 ratio normalized to peak value for 10 μM dimebolin, single curve fit to mean data of n=2-3, read-out: EC50
Method in brief: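 Cells were serum-deprived ~18 h in MEM with or without compound (DMSO ≤1%), then stained with JC-1 for 35 min at 37° C. The red/green fluorescence ratio (560/595 vs 485/535 nm) was normalized to the peak response of 10 μM dimebolin. EC50 came from one curve fit to mean data (n=2-3, duplicates).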

[3] = Homo sapiens, percent maximal intensity in JC-1 ratio normalized to 10 μM dimebolin

Question: Which Emax [1] does the source give for `Cc1ccc2c(c1)[C@H]1CN3CCC(CC3)[C@H]1N2CCc1ccc(C)nc1` (relative stereo) [Example 158, (5aR*,10bS*)-9-methyl-6-[2-(6-methylpyridin-3-yl)ethyl]-3,4,5,5a,6,10b-hexahydro-1H-2,5-ethanoazepino[4,3-b]indole] here?
Answer: 110%

Question: `Cc1ccc2c(c1)c1c(n2CCc2ccc(C)nc2)C[C@H]2CC[C@@H]1N2` (single isomer, unassigned) [Example 6] was tested. Which Emax [1] did it give?
Answer: 124%

Question: And the Emax [2, 3]?
Answer: 163%

Question: And the EC50 ([2]; Homo sapiens)?
Answer: 5.79 µM

Question: With `Cc1ccc2c(c1)c1c(n2CCc2cccc(C(F)(F)F)c2)C[C@H]2CCC[C@@H]1N2` (single isomer, unassigned) [Example 133] as the compound, how does the Emax [1] read?
Answer: 108%

Question: How did the Emax [1] turn out when `c1cnc2ccc(-n3c4c(c5ccccc53)[C@H]3CC[C@@H](C4)N3)cc2c1` (single isomer, unassigned) [Example 278] was run?
Answer: 96%

Question: And the Emax [2, 3]?
Answer: 189%

Question: What about the EC50 ([2]; Homo sapiens) of the same compound?
Answer: 2.71 µM

Question: Which results are given for `c1ccc2c(c1)c1c(n2-c2ccc3ccncc3c2)C[C@H]2CC[C@@H]1N2` (single isomer, unassigned) [Example 279]?
Answer: Emax [1]: 108%; Emax [2, 3]: 209%; EC50 ([2]; Homo sapiens): 5.49 µM

Question: For `c1ccc2c(c1)c1c(n2-c2ccc3ccncc3c2)C[C@@H]2CC[C@H]1N2` (single isomer, unassigned) [Example 280], which Emax [1] is on record?
Answer: 107%

Question: What about the Emax [2, 3] of the same compound?
Answer: 201%

Question: What about the EC50 ([2]; Homo sapiens) of the same compound?
Answer: 5.25 µM

Question: For `Cc1ccc2c(c1)c1c(n2CCc2cnc(C)nc2)C[C@H]2CC[C@@H]1N2C` [Example 31, (7R,10S)-2,11-dimethyl-5-[2-(2-methylpyrimidin-5-yl)ethyl]-5,6,7,8,9,10-hexahydro-7,10-epiminocyclohepta[b]indole], which Emax [1] is on record?
Answer: 96%

Question: What about the Emax [2, 3] of the same compound?
Answer: 97%

Question: And the EC50 ([2]; Homo sapiens)?
Answer: 6.05 µM

Question: With `Cc1ccc2c(c1)c1c(n2CCc2cccc(C(F)(F)F)c2)CC2CCC1N2C` (stereo not drawn) [Example 50, 2,11-dimethyl-5-{2-[3-(trifluoromethyl)phenyl]ethyl}-5,6,7,8,9,10-hexahydro-7,10-epiminocyclohepta[b]indole] as the compound, how does the Emax [1] read?
Answer: 101%

Question: What about the Emax [2, 3] of the same compound?
Answer: 175%

Question: And the EC50 ([2]; Homo sapiens)?
Answer: 6.45 µM

Question: Which Emax [1] does the source give for `Cc1ccc2c(c1)c1c(n2CCc2cccc(C(F)(F)F)c2)C[C@@H]2CCC[C@H]1N2` [Example 135, (7S,11R)-2-methyl-5-{2-[3-(trifluoromethyl)phenyl]ethyl}-6,7,8,9,10,11-hexahydro-5H-7,11-epiminocycloocta[b]indole] here?
Answer: 126%

Question: `Fc1ccc(Cn2c3c(c4cc(F)ccc42)CN2CCC3CC2)cc1` [Example 165, 9-fluoro-6-(4-fluorobenzyl)-3,4,5,6-tetrahydro-1H-2,5-ethanoazepino[4,3-b]indole] was tested. Which Emax [1] did it give?
Answer: 104%

Question: What does the source list for `Fc1ccc2c(c1)c1c(n2Cc2ccc(Br)cc2)C2CCN(CC2)C1` [Example 167, 6-(4-bromobenzyl)-9-fluoro-3,4,5,6-tetrahydro-1H-2,5-ethanoazepino[4,3-b]indole]?
Answer: Emax [1]: 92%; Emax [2, 3]: 149%; EC50 ([2]; Homo sapiens): 4.71 µM

Question: Which results are given for `Fc1ccc2c(c1)c1c(n2-c2ccc3ncccc3c2)C2CCN(CC2)C1` [Example 228, 9-fluoro-6-quinolin-6-yl-3,4,5,6-tetrahydro-1H-2,5-ethanoazepino[4,3-b]indole]?
Answer: Emax [1]: 141%; Emax [2, 3]: 263%; EC50 ([2]; Homo sapiens): 1.73 µM

Question: Which results are given for `Cc1ccc2cc(-n3c4c(c5cc(F)ccc53)CN3CCC4CC3)ccc2n1` [Example 229, 9-fluoro-6-(2-methylquinolin-6-yl)-3,4,5,6-tetrahydro-1H-2,5-ethanoazepino[4,3-b]indole]?
Answer: Emax [1]: 165%; Emax [2, 3]: 282%; EC50 ([2]; Homo sapiens): 0.7 µM

Question: Which results are given for `Cc1ncc(-n2c3c(c4cc(F)ccc42)CN2CCC3CC2)cn1` [Example 263, 9-fluoro-6-(2-methylpyrimidin-5-yl)-3,4,5,6-tetrahydro-1H-2,5-ethanoazepino[4,3-b]indole]?
Answer: Emax [2, 3]: 108%; EC50 ([2]; Homo sapiens): 11 µM

Question: With `c1cc(N2CCOCC2)nc(-n2c3c(c4ccccc42)CN2CCC3CC2)c1` [Example 265, 6-[6-(morpholin-4-yl)pyridin-2-yl]-3,4,5,6-tetrahydro-1H-2,5-ethanoazepino[4,3-b]indole] as the compound, how does the Emax [2, 3] read?
Answer: 264%

Question: And the EC50 ([2]; Homo sapiens)?
Answer: 1.84 µM

Question: How did the Emax [2, 3] turn out when `NC(=O)c1ccc(-n2c3c(c4ccccc42)CN2CCC3CC2)nc1` [Example 266, 6-(1,3,4,5-tetrahydro-6H-2,5-ethanoazepino[4,3-b]indol-6-yl)nicotinamide] was run?
Answer: 127%

Question: And the EC50 ([2]; Homo sapiens)?
Answer: 10.7 µM

Question: What does the source list for `c1ccc2c(c1)c1c(n2-c2ccc3c(c2)CCNC3)C2CCN(CC2)C1` [Example 267, 6-(1,2,3,4-tetrahydroisoquinolin-6-yl)-3,4,5,6-tetrahydro-1H-2,5-ethanoazepino[4,3-b]indole]?
Answer: Emax [2, 3]: 70%; EC50 ([2]; Homo sapiens): 9.72 µM

Question: How did the Emax [2, 3] turn out when `CN1CCc2cc(-n3c4c(c5ccccc53)CN3CCC4CC3)ccc2C1` [Example 268, 6-(2-methyl-1,2,3,4-tetrahydroisoquinolin-6-yl)-3,4,5,6-tetrahydro-1H-2,5-ethanoazepino[4,3-b]indole] was run?
Answer: 237%

Question: What about the EC50 ([2]; Homo sapiens) of the same compound?
Answer: 4.43 µM

Question: With `c1ccc2c(c1)c1c(n2-c2ccc3ncncc3c2)C2CCN(CC2)C1` [Example 269, 6-(quinazolin-6-yl)-3,4,5,6-tetrahydro-1H-2,5-ethanoazepino[4,3-b]indole] as the compound, how does the Emax [2, 3] read?
Answer: 204%

Question: What about the EC50 ([2]; Homo sapiens) of the same compound?
Answer: 0.745 µM

Question: With `c1ccc2c(c1)c1c(n2-c2ccc3ccncc3c2)C2CCN(CC2)C1` [Example 270, 6-(isoquinolin-7-yl)-3,4,5,6-tetrahydro-1H-2,5-ethanoazepino[4,3-b]indole] as the compound, how does the Emax [2, 3] read?
Answer: 270%

Question: What about the EC50 ([2]; Homo sapiens) of the same compound?
Answer: 2.81 µM

Question: For `c1ccc2c(c1)c1c(n2-c2ccc3cnccc3c2)C2CCN(CC2)C1` [Example 271, 6-(isoquinolin-6-yl)-3,4,5,6-tetrahydro-1H-2,5-ethanoazepino[4,3-b]indole], which Emax [2, 3] is on record?
Answer: 264%

Question: What about the EC50 ([2]; Homo sapiens) of the same compound?
Answer: 3.17 µM

Question: Which Emax [2, 3] does the source give for `c1ccc2c(c1)c1c(n2-c2cc(-n3ccnc3)ccn2)C2CCN(CC2)C1` [Example 272, 6-[4-(1H-imidazol-1-yl)pyridin-2-yl]-3,4,5,6-tetrahydro-1H-2,5-ethanoazepino[4,3-b]indole] here?
Answer: 149%

Question: And the EC50 ([2]; Homo sapiens)?
Answer: 3.99 µM

Question: For `O=c1ccccn1-c1cccc(-n2c3c(c4ccccc42)CN2CCC3CC2)n1` [Example 273, 6′-(1,3,4,5-tetrahydro-6H-2,5-ethanoazepino[4,3-b]indol-6-yl)-2H-1,2′-bipyridin-2-one], which Emax [2, 3] is on record?
Answer: 190%

Question: And the EC50 ([2]; Homo sapiens)?
Answer: 7.48 µM

Question: Which Emax [2, 3] does the source give for `O=C1COc2cc(-n3c4c(c5ccccc53)CN3CCC4CC3)ccc2N1` [Example 275, 7-(1,3,4,5-tetrahydro-6H-2,5-ethanoazepino[4,3-b]indol-6-yl)-2H-1,4-benzoxazin-3(4H)-one] here?
Answer: 130%

Question: What about the EC50 ([2]; Homo sapiens) of the same compound?
Answer: 3.44 µM

Question: With `NC(=O)c1cc(-n2c3c(c4ccccc42)CN2CCC3CC2)ccc1N` [Example 276, 2-amino-5-(3,4,5,6-tetrahydro-1H-2,5-ethanoazepino[4,3-b]indol-6(1H)-yl)benzamide] as the compound, how does the EC50 [2] read?
Answer: 6.65 µM

Question: What about the JC-1 max % ([2]; percent maximal intensity in JC-1 ratio normalized to 10 μM dimebolin) of the same compound?
Answer: 80.55%

Question: What does the source list for `CN1[C@H]2CC[C@@H]1c1c(n(-c3ccc4ncccc4c3)c3ccccc13)C2` [Example 281, (7S,10R)-11-methyl-5-(quinolin-6-yl)-5,6,7,8,9,10-hexahydro-7,10-epiminocyclohepta[b]indole]?
Answer: Emax [2, 3]: 228%; EC50 ([2]; Homo sapiens): 1.74 µM

Question: What does the source list for `Fc1ccc2c(c1)c1c(n2Cc2ccc(Cl)nc2)CC2CNC1C2` (stereo not drawn) [Example 285, 6-[(6-chloropyridin-3-yl)methyl]-9-fluoro-1,2,3,4,5,6-hexahydro-1,4-methanoazepino[4,3-b]indole]?
Answer: Emax [2, 3]: 149%; EC50 ([2]; Homo sapiens): 9.41 µM

Question: What does the source list for `CN1[C@@H]2CC[C@H]1c1c(n(-c3ccc4ncccc4c3)c3ccccc13)C2` [Example 286, (7R,10S)-11-methyl-5-(quinolin-6-yl)-5,6,7,8,9,10-hexahydro-7,10-epiminocyclohepta[b]indole]?
Answer: Emax [2, 3]: 239%; EC50 ([2]; Homo sapiens): 4.41 µM

Question: With `O=c1cccnn1-c1ccc(-n2c3c(c4ccccc42)CN2CCC3CC2)cc1` [Example 287, 2-[4-(1,3,4,5-tetrahydro-6H-2,5-ethanoazepino[4,3-b]indol-6-yl)phenyl]pyridazin-3(2H)-one] as the compound, how does the Emax [2, 3] read?
Answer: 209%

Question: And the EC50 ([2]; Homo sapiens)?
Answer: 1.53 µM

— US9983218B2, “Indole and indoline derivatives and methods of use thereof” (AbbVie Inc., priority 2008, dated 2018)
